Reference: patent US7863446B2, “Heterocycles” (Orchid Research Laboratories Limited, priority 2006, dated 2011)

Experiments:
Male wistar rats = assay: Carrageenan induced paw edema test in rat; assay type: in vivo; details: oral, 3 hours after carrageenan
Protocol: Carrageenan Induced Paw Edema Test in Rat
The carrageenan paw edema test was performed as described by Winter et al (Proc. Soc. Exp. Biol. Med, 111, 544, 1962). Male wistar rats were selected with body weights equivalent within each group. The rats were fasted for 18 hours with free access to water. The rats were dosed orally with the test compound suspended in the vehicle containing 0.25% carboxymethylcellulose and 0.5% Tween 80. The control rats were administered with vehicle alone. After an hour, the rats were injected with 0.1 ml of 1% Carrageenan solution in 0.9% saline into the sub-plantar surface of the right hind paw. Paw volume was measured using digital plethysmograph before and after 3 hours of carrageenan injection. The average of foot swelling in drug treated animals was compared with that of the control animals. Anti-inflammatory activity was expressed as the percentage inhibition of edema compared with control group [Arzneim-Forsch/Drug Res., 43 (I), 1, 44-50, 1993; Representative results of edema inhibition are shown in the Table VI.

Animals (male wistar) = assay: Ulcerogenic potential; assay type: in vivo; details: oral, 4 hours after administration
Protocol: In order to evaluate the compound's role on the ulcer formation, the animals were sacrificed and the stomach was taken out and flushed with 1% formalin. Animals (male wistar. 200 g) were fasted for 18 hours with free access to water and the test compounds were suspended in 0.5% Tween 80 and 0.25% CMC (carboxymethylcellulose) solution to make a uniform suspension. After 4 hours of oral administration of test compounds, all the animals were sacrificed by cervical dislocation. The stomach was dissected carefully and filled up with a sterile saline solution and embedded in 6% formalin solution. […] The test compound treated groups were compared with the vehicle treated groups. […]

IL-6 = assay: In vitro measurement of IL-6 in human PBMC (LPS stimulated); assay type: cell-based
Method in brief: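 Human PBMC (0.5 million/well) pre-incubated with compound 15 min at 37 °C, then stimulated with E. coli LPS (1 μg/ml) for 18 h at 37 °C, 5% CO2. IL-6 in culture medium quantified by ELISA.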

TNF-α = assay: In vitro measurement of TNF-α in human PBMC (LPS stimulated); assay type: cell-based
Method in brief: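 Healthy-volunteer PBMC (0.5 million/well) in RPMI were pre-incubated with compound 15 min at 37 °C. They were then stimulated with E. coli B4 LPS 1 μg/ml for 18 h at 37 °C, 5% CO2. TNF-α in culture medium was measured by ELISA.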

DU-145 = assay: Anti-cancer screen (MTT), DU-145; assay type: cell-based; details: Homo sapiens, DU-145, 48 hours

## CNS(=O)(=O)c1ccc(-c2c(Cl)nc(C(F)(F)F)nc2-c2ccc(S(C)(=O)=O)cc2)cc1 [Example 4, 4-{4-Chloro-6-[4-(methylsulfonyl)phenyl]-2-(trifluoromethyl)pyrimidin-5-yl}-N-methylbenzenesulfonamide]
other
  melting point: 226 to 230 °C
Male wistar rats
  Inhibition of edema (%) at 5 mg/kg: 17.12%
Animals (male wistar)
  Ulcer incidence at 5 mg/kg: Nil
IL-6; 1 μM, read-out: IL-6 Inhibition (%) Conc. (1 μM)
  inhibition at 1 µM: 27.2%
IL-6; 10 μM, read-out: IL-6 Inhibition (%) Conc. (10 μM)
  inhibition at 10 µM: 100%
TNF-α; 1 μM, NA = No activity, read-out: TNF-α Inhibition (%) at Conc. (1 μM)
  inhibition at 1 µM: 30%
TNF-α; 10 μM, read-out: TNF-α Inhibition (%) at Conc. (10 μM)
  inhibition at 10 µM: 107%
DU-145
  GI50: 1.93 µM
